According to ChEMBL document CHEMBL1132690, “Design, synthesis, and biological evaluation of potent thiazine- and thiazepine-based matrix metalloproteinase inhibitors” (J Med Chem, 1999):

Legend:
Matrilysin [1] = target: T1, Matrilysin (Homo sapiens, UniProt P09237)
T1 sequence (P09237 whole entry): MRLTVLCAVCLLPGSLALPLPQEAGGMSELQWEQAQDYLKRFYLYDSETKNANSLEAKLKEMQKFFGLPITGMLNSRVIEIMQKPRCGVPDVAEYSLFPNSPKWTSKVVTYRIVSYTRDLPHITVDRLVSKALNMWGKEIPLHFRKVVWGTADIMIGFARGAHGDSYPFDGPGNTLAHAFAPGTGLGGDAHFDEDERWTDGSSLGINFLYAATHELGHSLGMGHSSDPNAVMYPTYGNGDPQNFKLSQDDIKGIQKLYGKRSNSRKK
Description: Inhibition of matrilysin (Matrix metalloprotease-7)

Matrilysin [2] = target: T1, Matrilysin; remark: listed apart in the source
Description: In vitro inhibitory activity against matrilysin (matrix metalloprotease-7).

Neutrophil collagenase = Neutrophil collagenase (Homo sapiens, UniProt P22894)
Sequence of Neutrophil collagenase (P22894 whole entry): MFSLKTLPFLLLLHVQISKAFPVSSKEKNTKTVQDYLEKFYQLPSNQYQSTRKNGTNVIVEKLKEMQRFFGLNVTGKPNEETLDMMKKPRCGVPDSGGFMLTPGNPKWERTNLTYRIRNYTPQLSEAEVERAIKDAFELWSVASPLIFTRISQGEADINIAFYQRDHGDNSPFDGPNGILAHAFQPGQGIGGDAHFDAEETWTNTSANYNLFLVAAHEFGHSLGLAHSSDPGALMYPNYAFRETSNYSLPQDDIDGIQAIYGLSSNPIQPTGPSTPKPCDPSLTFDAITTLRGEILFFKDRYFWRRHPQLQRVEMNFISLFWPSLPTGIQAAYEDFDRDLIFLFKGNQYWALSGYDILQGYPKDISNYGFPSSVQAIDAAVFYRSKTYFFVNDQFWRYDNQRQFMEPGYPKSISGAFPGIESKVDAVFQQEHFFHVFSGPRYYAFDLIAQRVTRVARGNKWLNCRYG
Description: Inhibition of neutrophil collagenase (Matrix metalloprotease-8)

[3] = target: 72 kDa type IV collagenase (Homo sapiens, UniProt P08253)
Sequence of 72 kDa type IV collagenase (P08253 whole entry): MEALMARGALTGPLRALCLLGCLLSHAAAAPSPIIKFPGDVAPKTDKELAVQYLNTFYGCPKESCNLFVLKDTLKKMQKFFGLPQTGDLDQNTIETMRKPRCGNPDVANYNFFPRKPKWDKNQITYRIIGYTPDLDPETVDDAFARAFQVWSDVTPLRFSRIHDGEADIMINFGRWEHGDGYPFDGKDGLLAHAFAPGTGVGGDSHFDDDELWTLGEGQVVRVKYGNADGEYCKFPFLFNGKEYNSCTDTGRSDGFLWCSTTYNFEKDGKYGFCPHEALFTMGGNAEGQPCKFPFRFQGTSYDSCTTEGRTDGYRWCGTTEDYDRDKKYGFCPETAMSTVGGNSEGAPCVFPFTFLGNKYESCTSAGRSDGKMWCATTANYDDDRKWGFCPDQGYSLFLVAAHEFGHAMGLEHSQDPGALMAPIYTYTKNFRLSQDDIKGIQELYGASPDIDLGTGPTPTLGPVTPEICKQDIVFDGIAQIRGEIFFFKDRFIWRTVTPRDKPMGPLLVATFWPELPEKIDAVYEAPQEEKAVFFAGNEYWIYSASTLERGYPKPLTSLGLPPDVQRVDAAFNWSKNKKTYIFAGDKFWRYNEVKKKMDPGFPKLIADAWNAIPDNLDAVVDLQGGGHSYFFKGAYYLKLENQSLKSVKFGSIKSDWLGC
Description: In vitro inhibitory activity against gelatinase-A (matrix metalloprotease-2).

Collagenase 3 = Collagenase 3 (Homo sapiens, UniProt P45452)
Description: In vitro inhibitory activity against collagenase-3 (matrix metalloprotease-13).

Interstitial collagenase = target: T2, Interstitial collagenase (Homo sapiens, UniProt P03956)
T2 sequence (P03956 whole entry): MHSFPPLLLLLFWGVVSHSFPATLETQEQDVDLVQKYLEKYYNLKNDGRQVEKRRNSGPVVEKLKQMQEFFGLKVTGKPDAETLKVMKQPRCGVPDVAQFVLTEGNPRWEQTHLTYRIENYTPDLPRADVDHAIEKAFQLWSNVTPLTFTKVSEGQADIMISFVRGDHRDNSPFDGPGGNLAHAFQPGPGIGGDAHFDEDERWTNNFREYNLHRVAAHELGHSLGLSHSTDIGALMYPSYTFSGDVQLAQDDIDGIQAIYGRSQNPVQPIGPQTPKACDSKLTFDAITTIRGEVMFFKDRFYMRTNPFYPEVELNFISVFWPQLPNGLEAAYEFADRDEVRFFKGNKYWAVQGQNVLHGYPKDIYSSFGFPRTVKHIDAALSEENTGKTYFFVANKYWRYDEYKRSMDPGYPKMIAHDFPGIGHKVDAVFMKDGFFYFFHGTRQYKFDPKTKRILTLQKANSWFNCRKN
Description: In vitro inhibitory activity against truncated collagenase-1 (matrix metalloprotease-1).

[4] = target: Matrix metalloproteinase-9 (Homo sapiens, UniProt P14780)
Sequence of Matrix metalloproteinase-9 (P14780 whole entry): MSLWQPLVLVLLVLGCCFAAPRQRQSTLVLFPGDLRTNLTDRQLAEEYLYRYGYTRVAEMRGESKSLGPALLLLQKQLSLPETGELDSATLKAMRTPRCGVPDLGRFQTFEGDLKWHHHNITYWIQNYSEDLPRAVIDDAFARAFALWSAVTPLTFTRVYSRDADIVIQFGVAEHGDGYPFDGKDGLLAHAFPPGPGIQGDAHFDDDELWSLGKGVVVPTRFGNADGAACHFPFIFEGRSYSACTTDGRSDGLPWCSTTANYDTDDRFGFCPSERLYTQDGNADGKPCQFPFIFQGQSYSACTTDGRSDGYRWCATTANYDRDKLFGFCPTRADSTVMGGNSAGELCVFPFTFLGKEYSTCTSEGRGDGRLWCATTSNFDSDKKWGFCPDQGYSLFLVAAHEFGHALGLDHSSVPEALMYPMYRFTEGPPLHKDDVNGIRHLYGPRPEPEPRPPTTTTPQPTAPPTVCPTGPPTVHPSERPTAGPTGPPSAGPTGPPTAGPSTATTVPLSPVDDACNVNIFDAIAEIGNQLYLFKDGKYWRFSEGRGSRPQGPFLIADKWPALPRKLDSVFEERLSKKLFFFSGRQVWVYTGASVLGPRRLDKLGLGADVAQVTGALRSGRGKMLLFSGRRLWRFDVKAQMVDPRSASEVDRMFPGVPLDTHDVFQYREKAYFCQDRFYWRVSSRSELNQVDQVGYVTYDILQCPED
Description: Inhibition of gelatinase-B (Matrix metalloprotease-9)

| Structure (SMILES) | Ki (Matrilysin [1]) [nM] | IC50 (Matrilysin [2]) [nM] | IC50 (Neutrophil collagenase) [nM] | IC50 [3] [nM] | IC50 (Collagenase 3) [nM] | IC50 (Interstitial collagenase) [nM] | IC50 [4] [nM] |
| --- | --- | --- | --- | --- | --- | --- | --- |
| CC1(C)SCCN(S(=O)(=O)c2ccc(Oc3ccncc3)cc2)[C@H]1C(=O)NO [PRINOMASTAT] | 54 | 91 | < 0.4 |  |  |  |  |
| COc1ccc(S(=O)(=O)N2CCSCC2C(=O)NO)cc1 (stereo unspecified) |  | 2070 |  |  | 1 | 62 |  |
| COc1ccc(S(=O)(=O)N2[C@@H](c3ccccc3)CCSC(C)(C)[C@@H]2C(=O)NO)cc1 |  | 110 |  |  |  | 271 |  |
| CC1(C)SCCCN(S(=O)(=O)c2ccc(Oc3ccncc3)cc2)[C@H]1C(=O)NO |  | 105 |  | < 0.4 | < 0.4 | 5.7 |  |
| COc1ccc(S(=O)(=O)N2[C@@H](C(=O)NO)C(C)(C)SCC[C@H]2c2ccccc2)cc1 |  | 54 |  |  |  | 236 |  |
| COCOC1CSC(C)(C)[C@H](C(=O)NO)N(S(=O)(=O)c2ccc(OC)cc2)C1 (stereo partly specified) |  | 38 |  | 1.8 | 1.4 |  |  |
| COc1ccc(S(=O)(=O)N2CCNCC2C(=O)NO)cc1 (stereo unspecified) |  | 2390 |  |  | 1.7 | 175 |  |
| COc1ccc(S(=O)(=O)N2CCCCCC2C(=O)NO)cc1 (stereo unspecified) |  | 895 |  |  | 1.8 | 49 |  |
| COc1ccc(S(=O)(=O)N2CCCSCC2C(=O)NO)cc1 (stereo unspecified) |  | 1100 |  |  | 1.9 | 64 |  |
| COc1ccc(S(=O)(=O)N2CCCSC[C@@]2(C)C(=O)NO)cc1 |  | 17700 |  | 4.2 | 4 | 217 |  |
| CC1(C)SCCCN(S(=O)(=O)c2ccc(-c3ccc(F)cc3)cc2)[C@H]1C(=O)NO |  | < 100 |  | 1.3 | < 1 | 2.9 |  |
| CC1(C)SCCCN(S(=O)(=O)c2ccc(-c3ccccn3)s2)[C@H]1C(=O)NO |  | 170 |  | 1 | < 0.2 | 1 |  |
| COc1ccc(S(=O)(=O)N2CCOCC2C(=O)NO)cc1 (stereo unspecified) |  |  |  |  | 1 | 49.5 |  |
| CC1(C)SCCCN(S(=O)(=O)c2ccc(Oc3ccccc3)cc2)[C@H]1C(=O)NO |  | 16 |  |  | < 0.4 | 2.3 |  |
| COc1ccc(S(=O)(=O)N2CSCC2C(=O)NO)cc1 (stereo unspecified) |  |  |  |  |  | 638 |  |

Second part, the molecule after the results:

| Ki (Matrilysin [1]) [nM] | IC50 (Matrilysin [2]) [nM] | IC50 (Neutrophil collagenase) [nM] | IC50 [3] [nM] | IC50 (Collagenase 3) [nM] | IC50 (Interstitial collagenase) [nM] | IC50 [4] [nM] | Structure (SMILES) |
| --- | --- | --- | --- | --- | --- | --- | --- |
|  | < 100 |  | 3.5 | 0.2 | < 1 |  | COc1ccc(S(=O)(=O)N2CCOCCSC(C)(C)[C@@H]2C(=O)NO)cc1 |
|  | 330 |  |  | 2.1 | 61 |  | CCCCCc1ccc(S(=O)(=O)N2CCCSC(C)(C)[C@@H]2C(=O)NO)cc1 |
|  | 313 |  |  | 0.5 |  |  | COc1ccc(S(=O)(=O)N2CCCCC2C(=O)NO)cc1 (stereo unspecified) |
|  |  |  | 14 | 4.3 | 13 |  | COc1ccc(S(=O)(=O)N2CCS(=O)(=O)C(C)(C)[C@@H]2C(=O)NO)cc1 |
|  | 30 | 0.6 | 2.4 | 1 | 3 | 3.7 | COc1ccc(S(=O)(=O)N2CCCCCSC(C)(C)[C@@H]2C(=O)NO)cc1 |
|  | 23 |  | 1.4 | 1 | 0.4 | 0.9 | COc1ccc(S(=O)(=O)N2CCSC(C)(C)[C@@H]2C(=O)NO)cc1 |
|  |  |  | 5.2 | 1.3 | 1.9 |  | COc1ccc(S(=O)(=O)N2C[C@@H](O)CS(=O)(=O)C(C)(C)[C@@H]2C(=O)NO)cc1 |
|  | 12800 |  |  | 18.4 | 688 |  | COc1ccc(S(=O)(=O)N2CCS(=O)(=O)CC2C(=O)NO)cc1 (stereo unspecified) |
|  | 509 |  | 11.4 | 5.6 | 42 |  | COCCOc1ccc(S(=O)(=O)N2CCCSC(C)(C)[C@@H]2C(=O)NO)cc1 |
|  |  |  |  |  | 297 |  | COc1ccc(S(=O)(=O)N2CCCC2C(=O)NO)cc1 (stereo unspecified) |
|  | 354 |  | 24 | 9.2 | 0.5 |  | Cc1cc(Br)ccc1S(=O)(=O)N1CCCSC(C)(C)[C@@H]1C(=O)NO |
|  | 79 |  | 20 | 2.7 | 1.2 |  | CC1(C)[C@H](C(=O)NO)N(S(=O)(=O)c2ccc(Br)cc2)CCCS1(=O)=O |
|  | > 10000 | 881 | 2900 | 2330 | 7780 | 1390 | COc1ccc(S(=O)(=O)N2CCCSC(C)(C)C2C(=O)NO)cc1 (single isomer, unassigned) |
|  | 41 | 2.4 | 7.8 | 2.1 |  | 3.6 | COc1ccc(S(=O)(=O)N2CCCS(=O)(=O)C(C)(C)[C@@H]2C(=O)NO)cc1 |
|  | 183 |  |  | 3.3 | 1.9 |  | COc1ccc(S(=O)(=O)N2CCOCCS(=O)(=O)C(C)(C)[C@@H]2C(=O)NO)cc1 |
|  | 17 |  | 6.8 | 1.3 | 0.7 |  | CC1(C)SCCCN(S(=O)(=O)c2ccc(Br)cc2)[C@H]1C(=O)NO |
|  | 637 |  | 35 | 7.5 | 22 |  | CCCc1ccc(S(=O)(=O)N2CCCSC(C)(C)[C@@H]2C(=O)NO)cc1 |
|  | 18 | 1.9 | 1.4 |  | 2.4 | 0.5 | COc1ccc(S(=O)(=O)N2CCCCC(C)(C)[C@@H]2C(=O)NO)cc1 |
|  | 30 | 1.4 | 2.7 | 0.9 | 0.8 | 1.9 | COc1ccc(S(=O)(=O)N2CCCSC(C)(C)[C@@H]2C(=O)NO)cc1 |
|  |  |  | 1 | 2.3 | 18 |  | CCCCOc1ccc(S(=O)(=O)N2CCCSC(C)(C)[C@@H]2C(=O)NO)cc1 |
|  | 27 |  | 1.2 | 0.4 | 19 |  | CCCCOc1ccc(S(=O)(=O)N2CCCS(=O)(=O)C(C)(C)[C@@H]2C(=O)NO)cc1 |
